Data published in PubChem BioAssay AID624405 (Broad Institute, 2012).
Records with an inconclusive call do not appear.

These compounds were tested on C2C12 myotubes + simvastatin, ATP luminescence, 48 h (assay: rescue of simvastatin-induced ATP loss – cell-based, C2C12 myotubes, ATP luminescence, cherry pick, dose response (AID 624405);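 further: myotubes are challenged with simvastatin at 10 µM to lower ATP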).
In the case of CC(C)(C)c1ccc(Cn2nnc3c(=O)[nH]c(C4CCN(C(=O)Cc5cccs5)CC4)nc32)cc1, the AC40 is reported as 3.99 µM. For C[C@@H]1CN([C@H](C)CO)C(=O)Cc2cc(NS(=O)(=O)c3cn(C)cn3)ccc2O[C@@H]1CN(C)Cc1ccc(Cl)c(Cl)c1, the AC40 was 2.69 µM. In the case of CCS(=O)(=O)c1ncc(Cl)c(C(=O)Nc2ccccc2OC)n1, the AC40 is reported as 2.12 µM. C[C@H]1CN([C@@H](C)CO)S(=O)(=O)c2ccc(C#Cc3ccc(F)cc3)cc2O[C@@H]1CN(C)S(=O)(=O)c1cn(C)cn1 showed an AC40 of 5.96 µM. With C[C@H](CO)N1C[C@H](C)[C@H](CN(C)Cc2ccc3c(c2)OCO3)Oc2ccc(NC(=O)CCCCCC(=O)Nc3ccccc3N)cc2CC1=O the AC40 was 14.9 µM. With Nc1nonc1-c1nc2ccccc2n1Cc1ccc(F)cc1Cl the AC40 was 0.892 µM. Work on C[C@H]1CN([C@@H](C)CO)C(=O)Cc2cc(NS(=O)(=O)c3ccc(F)cc3)ccc2O[C@@H]1CN(C)Cc1ccc(Cl)c(Cl)c1 yielded an AC40 of 15.8 µM. C[C@H](CO)N1C[C@H](C)[C@H](CN(C)Cc2ccccc2)Oc2ccc(NC(=O)CCCCCC(=O)Nc3ccccc3N)cc2CC1=O gave an AC40 of 10.1 µM. Cc1cccn2c(=O)c(C=O)c(N3CCCCCC3)nc12 was tested, and the AC40 was 15.1 µM. O=C(Nc1ccc2nc3n(c(=O)c2c1)CCCCC3)c1c(F)ccc([N+](=O)[O-])c1F gave an AC40 of 4.3 µM. Work on O=S(=O)(Nc1nc2c(s1)CCCC2)c1ccc2ccccc2c1 yielded an AC40 of 5.94 µM. For COc1ccc(Nc2nc3ccc(C)cn3c(=O)c2/C=N/O)cc1, the AC40 was 15.2 µM. CCOC(=O)N1CCN(C(=O)C(c2ccccc2)c2ccccc2)CC1 was tested, and the AC40 was 5.75 µM. C[C@H](CO)N1C[C@H](C)[C@H](CN(C)CC2CCCCC2)Oc2ccc(NC(=O)CCCCCC(=O)Nc3ccccc3N)cc2CC1=O gave an AC40 of 10.1 µM. Cc1nc(-c2cccc(S(=O)(=O)N3CC(C)OC(C)C3)c2)cs1 (stereo not drawn) showed an AC40 of 18.3 µM. Work on CCN(CC)c1ncnc2c1cnn2Cc1ccc(C)cc1 yielded an AC40 of 12 µM. C[C@H](CO)N1C[C@H](C)[C@@H](CN(C)Cc2ccc(Cl)c(Cl)c2)Oc2ccc(NC(=O)C3CC3)cc2CC1=O was tested, and the AC40 was 1.23 µM. O=S(=O)(NCc1ccco1)c1ccc(S(=O)(=O)N2CCCCC2)cc1 gave an AC40 of 5.03 µM. Fc1ccccc1OCCCCn1cncn1 showed an AC40 of 18.6 µM. Cc1cccc(C)c1Nc1nnc(SCc2cc([N+](=O)[O-])cc3c2OCOC3)s1 was tested, and the AC40 was 3.85 µM. In the case of NC1=NC(=Nc2ccccc2)c2ccccc21, the AC40 is reported as 16.3 µM. Cc1ccc(S(=O)(=O)Nc2ccc3c(c2)CC(=O)N([C@@H](C)CO)C[C@H](C)[C@@H](CN(C)Cc2ccc(Cl)c(Cl)c2)O3)cc1 gave an AC40 of 11.9 µM. O=C(/C=C/Sc1ncn[nH]1)c1ccc(Cl)cc1 gave an AC40 of 6.34 µM. C[C@H](CO)N1C[C@H](C)[C@H](CN(C)Cc2ccc(C(=O)Nc3ccccc3N)cc2)Oc2ccc(NC(=O)Nc3cccc4ccccc34)cc2C1=O gave an AC40 of 8.83 µM. For N#C[C@@H]1[C@@H](c2ccccc2)[C@H](CO)N1S(=O)(=O)c1ccc(-c2ccccc2)cc1, the AC40 was 8.78 µM. With C[C@@H]1CN([C@H](C)CO)C(=O)Cc2cc(NC(=O)CCCCCC(=O)Nc3ccccc3N)ccc2O[C@H]1CN(C)Cc1ccc(-c2ccccc2)cc1 the AC40 was 6.3 µM. Compound O=C(C1CCC1)N1CCCc2cc(S(=O)(=O)N3CCN(c4ccccc4)CC3)ccc21 has an AC40 of 16.6 µM. With CCOCCCN1CN(S(=O)(=O)c2ccc(Cl)cc2)c2nc3ccccc3nc21 the AC40 was 1.87 µM. CCn1c(-c2ccc(-c3ccccc3)cc2)c[nH]c1=S was tested, and the AC40 was 3.72 µM. For C[C@@H]1CN([C@H](C)CO)C(=O)c2cc(NC(=O)Nc3cccc4ccccc34)ccc2O[C@H]1CN(C)Cc1ccc(C(=O)Nc2ccccc2N)cc1, the AC40 was 17 µM. Work on C[C@H](CO)N1C[C@H](C)[C@H](CN(C)Cc2ccc(C(=O)Nc3ccccc3N)cc2)Oc2ccc(NC(=O)Cc3cn(C)c4ccccc34)cc2C1=O yielded an AC40 of 6.08 µM. Compound CC1CCN(c2nc3c(c(=O)[nH]c(=O)n3C)n2CCCc2ccccc2)CC1 has an AC40 of 4.71 µM. C[C@H]1CN([C@@H](C)CO)S(=O)(=O)c2ccc(-c3cccc(F)c3)cc2O[C@@H]1CN(C)S(=O)(=O)c1ccc(F)cc1 was tested, and the AC40 was 15.5 µM. C[C@H]1CN([C@@H](C)CO)C(=O)Cc2cc(NC(=O)Nc3cccc4ccccc34)ccc2O[C@H]1CN(C)Cc1ccc(C(=O)Nc2ccccc2N)cc1 showed an AC40 of 2.05 µM. Work on C[C@H](CO)N1C[C@H](C)[C@@H](CN(C)Cc2ccc(C(F)(F)F)cc2)Oc2ccc(NS(=O)(=O)c3ccc(F)cc3)cc2CC1=O yielded an AC40 of 18.2 µM. Cc1onc(-c2ccccc2Cl)c1C(=O)NCc1nc(-c2ccccc2)no1 showed an AC40 of 8.26 µM. With C[C@@H]1CN([C@H](C)CO)C(=O)c2cccc(NC(=O)Nc3ccc4c(c3)OCO4)c2O[C@H]1CN(C)Cc1ccc(C(=O)Nc2ccccc2N)cc1 the AC40 was 0.893 µM. COc1ccccc1-c1noc(-c2cccs2)n1 gave an AC40 of 0.575 µM. C[C@@H]1CN([C@H](C)CO)C(=O)c2cccc(NC(=O)Nc3ccccc3)c2O[C@H]1CN(C)Cc1ccc(C(=O)Nc2ccccc2N)cc1 gave an AC40 of 11 µM. CN(c1ccc(Cl)cc1)c1cc(=O)n(C)c2ccccc12 was tested, and the AC40 was under 0.16 µM. Compound C[C@@H]1CN([C@@H](C)CO)C(=O)Cc2cc(N(C)C)ccc2O[C@@H]1CN(C)Cc1ccc(Cl)c(Cl)c1 has an AC40 of 9.93 µM. With C[C@@H]1CN([C@H](C)CO)C(=O)Cc2cc(NC(=O)C3CCCCC3)ccc2O[C@H]1CN(C)Cc1ccc(Cl)c(Cl)c1 the AC40 was 5.24 µM. With COc1cc(/C=C(/C(=O)c2cccs2)c2nc3ccccc3[nH]2)cc(OC)c1O the AC40 was 1.38 µM.
